Columns and labels:
[1] = test system: HEK-uPAR xenograft-bearing nude mice; assay: Biodistribution studies in HEK-uPAR xenograft-bearing nude mice; conditions: average ± SD, n=3 animals
Experimental: (§1) All applicable international, national, and/or institutional guidelines for the care and use of laboratory animals were followed, and the herein reported experiments were carried out according to the guidelines of the Swiss Regulations for Animal Welfare. The preclinical studies were ethically approved by the Cantonal Committee of Animal Experimentation and permitted by the responsible cantonal authorities (License No. 75721). Five-week-old female CD1/nude (Crl:CD1-Foxn ^ nu ) and female immunocompetent FVB (FVB/NCrl) mice were obtained from Charles River Laboratories (Sulzfeld, Germany). All mice were acclimatized for at least 7 days, receiving standard rodent chow ad libitum before being included in the reported studies. The CD1/nude mice were subcutaneously inoculated with HEK-uPAR cells (7 × 10^6 cells in 100 μL PBS) on the right shoulder. […] Typically, it took 3–11 weeks to reach xenograft volumes of 40–600 mm^3 at the time of testing the tissue distribution of the radiopeptides. The immunocompetent FVB mice were used for testing the in vivo stability of the radiopeptides.
(§2) The mice were injected with the radiopeptides (5 MBq, 0.5 nmol, 100 μL) in saline containing 0.05% BSA and sacrificed at 4 and 24 h after injection of the radiopeptides. Selected tissues and organs were collected, weighed, and measured with the γ-counter (1480 Wizard, PerkinElmer). […] A p-value of <0.05 was considered a statistically significant difference (GraphPad Prism software, version 8.3.1).
(§3) Decay-corrected data is shown as average ± SD of n = 3 animals of % injected activity per gram (IA/g) tissue.

[2] = as above; conditions: female, mouse, 0.5 nmol, total radioactivity, 5 MBq, 0.5 nmol, decay-corrected, average ± SD, n=3 animals; for tissue uptake at 4 h: 4 h p.i.; for tissue uptake at 24 h: 24 h p.i.
Experimental: as §1, §2, §3

human uPAR = biological target: T1, human uPAR (Homo sapiens, UniProt Q03405); assay: uPAR-binding affinity (KD values), saturation experiments with HEK-uPAR cells; conditions: saturation binding on HEK-uPAR cells, on ice (4 °C) 1 h, 1–1600 nM radiopeptide, ± AE105 40 µM; γ-counter; nonlinear regression; average ± SD, n=3
T1 construct: host or cells: HEK cells (HEK-uPAR)
Experimental: To determine the uPAR-binding affinity of the radiopeptides, saturation experiments were performed using HEK-uPAR cells in 48-well plates (Supporting Information). The cells were incubated on ice for 1 h in the presence or absence of excess AE105 (final concentration of 40 μM) together with the respective radiopeptide at a concentration range of 1–1600 nM. After rinsing the cells with PBS, they were lysed with an aqueous NaOH solution (1 M, 600 μL), transferred to radioimmunoassay tubes, and measured in a γ-counter (1480 Wizard, PerkinElmer). The K D values were determined by plotting the specific binding (values of samples incubated without AE105 minus the values of samples incubated with AE105) against the molar concentration of the added peptide. A nonlinear regression analysis was performed using GraphPad Prism software (version 8.3.1). The results were expressed as average ± SD of n = 3 independently performed experiments. […]
7. Determination of uPAR-Binding Affinity (KD Values)
Purpose: The uPAR-binding affinity of the radiopeptides were determined to investigate the impact of structural changes on the receptor binding.
Methods: HEK-uPAR cells were seeded in poly-D-lysine-coated 48-well plates (0.25 × 10 6 in 0.5 mL per well) using DMEM cell culture medium with supplements. The cells were incubated at 37 °C and 5% CO2 overnight to allow adhesion and growth. After removing the supernatant, the well plates with HEK-uPAR cells were placed on ice to prevent internalization of the radiopeptides. The cells were rinsed with cold PBS (0.5 mL, pH 7.4) followed by the addition of DMEM cell culture medium without supplements (450 µL/well) in the presence or absence of AE105 ( final concentration 40 µM) as a receptor-blocking agent. The radiopeptides (5 MBq/nmol) were diluted in PBS to obtain peptide concentrations ranging from 10 ‒16000 nM. From each dilution, 50 µL were added to each well to obtain final peptide concentrations of 1 nM to 1600 nM. The cells were incubated at 4 °C for 1 h before rinsing twice with PBS (0.5 mL, pH 7.4). The cells were lysed using an aqueous NaOH solution (1 M, 600 µL) and the lysates were transferred to RIA tubes for counting the activity in a γ-counter (1480 Wizard, PerkinElmer) . The KD values were determined by plotting specific binding (total binding minus unspecific binding) against the molar concentration of the added radiopeptide using GraphPad Prism (version 8.3.1). the results were then expressed as average K D values ± SD of n = 3 independent […]
Results: The results are reported in the main article.

[3] = Stability of the radiopeptides in human blood plasma
[4] = Radiolytic stability of the radiopeptides in saline with L-ascorbic acid; conditions: 50 MBq/nmol in saline, 150 MBq/300 µL, L-ascorbic acid (3 mg, 20 µL) and NaOAc (0.5 M, 30 µL), HPLC, product peak relative to t=0 (100%), average ± SD, n=3
[5] = test system: human serum albumin (HSA); assay: Albumin-binding properties in human blood plasma (ultrafiltration assay); conditions: ultrafiltration (Amicon, 10 kDa), human blood plasma dilutions in PBS pH 7.4, [HSA]-to-[radiopeptide] 0.01–20000, 0.006 nmol, 37 °C 30 min, γ-counter; inverse ratio of B50, [177Lu]Lu-uPAR-01 set as 1.00; average curve of 3 experiments
Experimental: (§4) The relative albumin-binding affinities of the radiopeptides in mouse and human blood plasma were determined using an ultrafiltration assay with Amicon centrifugal filters (cutoff of 10 kDa; Merck Millipore), as previously reported (Supporting Information). A fixed amount of the respective radiopeptide (15 μL, ∼300 kBq, 0.006 nmol) was added to a defined volume (150 μL) of mouse and human blood plasma dilutions to obtain [mouse serum albumin (MSA)]-to-[radiopeptide] and [human serum albumin (HSA)]-to-[radiopeptide] molar concentration ratios of 0.01–12,500 and 0.01–20,000, respectively. The data were analyzed using a semilogarithmic Hill plot with the maximum binding set as 100% (GraphPad Prism software, version 8.3.1).
(§5) Determination of the Albumin-Binding Properties
(§6) Purpose: The radiopeptides were investigated with regard to their albumin-binding capabilities in vitro
(§7) as a measure to predict blood retention in vivo.
(§8) Methods: The relative albumin-binding affinity of the radiopeptides in mouse blood plasma (Rockland
(§9) Immunochemicals, Inc., U.S.A.) and human blood plasma (Stiftung Blutspende SRK Aargau-
(§10) Solothurn, Switzerland) were determined using an ultrafiltration method. The amount of mouse serum
(§11) albumin (MSA) and human serum albumin (HSA) in mouse and human blood plasma was defined as
(§12) 550 μM and 800 μM, respectively, based on measurements using a dry chemistry analyzer (DRI-CHEM
(§13) 4000i, FUJIFILM, Japan). A fixed amount of radiopeptide (50 MBq/nmol, ~300 kBq, 15 μL, 0.006
(§14) nmol) was added to a defined volume (150 μL) of mouse and human blood plasma and various dilutions
(§15) thereof in PBS pH 7.4, resulting in defined [MSA]-to-[radiopeptide] or [HSA]-to-[radiopeptide] molar
(§16) concentration ratios ranging from 0.01 ‒12500 and 0.01‒20000, respectively, followed by incubation of
(§17) the samples at 37 °C for 30 min. Ice-cold PBS (150 µL, pH 7.4) was added before loading the blood
(§18) plasma samples on Amicon centrifugal filters (cut -off of 10 kDa; Merck Millipore) followed by
(§19) centrifugation (14000 rcf, 30 min, 4 °C) to allow the separation of the plasma protein -bound from the
(§20) plasma-unbound (free) fractions of each sample. The inserts of the filter devices were inverted and centrifuged at 200 rcf for 3 min to recover the protein -bound radiopeptide. The activity in the filtrate
(§21) and filter unit was measured in a γ-counter (1480 Wizard, PerkinElmer) and the counts were combined
(§22) assuming that the fraction retained in the filter membrane was not bound to proteins. The protein -bound
(§23) fraction was expressed as percentage of the whole activity (i.e. plasma protein -bound activity, activity
(§24) measured in the filtrate and activity measured in the filter (set as 100%) ). The data were analyzed using
(§25) a semi-logarithmic plot assuming a maximum binding of 100%. The Hill equation was fitted to the data
(§26) points and the half -maximum binding ( B50) based on the average curve obtained from three independent
(§27) experiments (GraphPad Prism software, version 8.3 .1). The relative albumin-binding affinit ies of the
(§28) reference compound, whose relative binding affinity was set as 1.0. The results were presented as the
(§29) B50 value obtained from the average curve from 3 independent experiments.

[6] = n-Octanol/PBS distribution coefficients (logD values); conditions: n-octanol/PBS pH 7.4, pH 7.4
Experimental: The radiopeptides diluted in phosphate-buffered saline (PBS) pH 7.4 (25 μL, ∼0.5 MBq, 0.01 nmol) were added to a mixture of PBS pH 7.4 (1475 μL) and n-octanol (1500 μL). The vials were vortexed vigorously for 1 min, followed by centrifugation (560 rcf, 6 min) for phase separation. Aliquots were taken from each phase and measured in a γ-counter (1480 Wizard, PerkinElmer). The distribution coefficients were calculated as the logarithmic value of the ratio of counts per minute (cpm) measured in the n-octanol phase relative to the cpm measured in the PBS phase.
Methods: The logD value of all radiopeptides was determined in a mixture of n-octanol and phosphate
buffered saline (PBS) pH 7.4 using phase separation followed by liquid-liquid extraction.
polystyrene radioimmunoassay (RIA) tubes were prepared for each radiopeptide with 1.5 mL n-octanol
and 1.475 mL PBS pH 7.4. The RIA tubes were rigorously vortexed and subsequently let to stand so
that the phase separation could take place. The radiopeptides (50 MBq/nmol) were diluted with PBS
pH 7.4 to obtain an activity concentration of 10 MBq/0.5 mL. A volume of 25 μL of these solutions
was added to each RIA tube (25 µL, ~0.5 MBq, 0.01 nmol) followed by vortexing for 1 min.
separation was achieved by centrifugation at 560 rcf for 6 min. The activity in the n-octanol and PBS
phase, respectively, was measured in a γ-counter (Wallac Wizard 1480, PerkinElmer).
coefficients were calculated as the logarithm of the ratio of counts per minute (cpm) measured in the n-
octanol phase relative to the cpm measured in the PBS pH 7.4 phase.
as described above three independent times for each radiopeptide.

[7] = test system: mouse serum albumin (MSA); assay: Albumin-binding properties in mouse blood plasma (ultrafiltration assay); conditions: ultrafiltration (Amicon, 10 kDa), mouse blood plasma dilutions in PBS pH 7.4, [MSA]-to-[radiopeptide] 0.01–12500, 0.006 nmol, 37 °C 30 min, γ-counter; inverse ratio of B50, [177Lu]Lu-uPAR-01 set as 1.00; average curve of 3 experiments
Experimental: as §4, §5, §6, §7, §8, §9, §10, §11, §12, §13, §14, §15, §16, §17, §18, §19, §20, §21, §22, §23, §24, §25, §26, §27, §28, §29

[8] = CD1/nude (Crl:CD1-Foxn nu), HEK-uPAR xenograft, HEK-uPAR xgft
[9] = CD1/nude (Crl:CD1-Foxn nu), liver, Liver
[10] = CD1/nude, blood, 5 MBq (0.5 nmol)
[11] = CD1/nude, bone, 5 MBq (0.5 nmol)
[12] = CD1/nude, brain, 5 MBq (0.5 nmol)
[13] = CD1/nude, heart, 5 MBq (0.5 nmol)
[14] = CD1/nude, intestines, 5 MBq (0.5 nmol)
[15] = CD1/nude, kidneys, 5 MBq (0.5 nmol)
[16] = CD1/nude, liver, 5 MBq (0.5 nmol)
[17] = CD1/nude, lung, 5 MBq (0.5 nmol)
[18] = CD1/nude, muscle, 5 MBq (0.5 nmol)
[19] = CD1/nude, pancreas, 5 MBq (0.5 nmol)
[20] = CD1/nude, salivary glands, 5 MBq (0.5 nmol)
[21] = CD1/nude, spleen, 5 MBq (0.5 nmol)
[22] = CD1/nude, stomach, 5 MBq (0.5 nmol)

T1 sequence (Q03405 23-335): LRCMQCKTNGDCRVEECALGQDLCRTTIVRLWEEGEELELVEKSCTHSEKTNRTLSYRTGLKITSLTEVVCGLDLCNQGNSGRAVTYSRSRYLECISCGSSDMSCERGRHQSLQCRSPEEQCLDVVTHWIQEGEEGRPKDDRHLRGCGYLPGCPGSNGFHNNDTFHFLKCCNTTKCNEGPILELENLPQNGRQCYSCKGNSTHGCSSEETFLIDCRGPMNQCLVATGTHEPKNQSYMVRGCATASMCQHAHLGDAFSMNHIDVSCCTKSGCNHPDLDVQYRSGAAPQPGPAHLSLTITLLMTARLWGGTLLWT

Compound: CC(C)C[C@H](NC(=O)[C@H](Cc1ccc(O)cc1)NC(=O)[C@@H](CCCNC(=N)N)NC(=O)[C@@H](CO)NC(=O)[C@H](Cc1ccccc1)NC(=O)[C@H](CC1CCCCC1)NC(=O)[C@H](CC(=O)O)NC(=O)CN1CCN(CC(=O)O)CCN(CC(=O)O)CCN(CC(=O)O)CC1)C(=O)N[C@@H](Cc1c[nH]c2ccccc12)C(=O)N[C@@H](CO)C(N)=O [[^177Lu]Lu-DOTA-AE105, metal not drawn, reference compound]
- HEK-uPAR xgft ([1]; 4 h p.i., 5 MBq, 0.5 nmol, decay-corrected): 0.87 ± 0.05 % IA/g
- Xenograft-to-blood ratio ([1]; 4 h p.i.): 11 ± 1
- Xenograft-to-kidney ratio ([1]; 4 h p.i.): 0.58 ± 0.03
- Xenograft-to-liver ratio ([1]; 4 h p.i.): 8.6 ± 0.4
- Xenograft-to-blood ratio ([1]; 24 h p.i.): 32 ± 13
- Xenograft-to-kidney ratio ([1]; 24 h p.i.): 0.33 ± 0.14
- Xenograft-to-liver ratio ([1]; 24 h p.i.): 2.4 ± 0.9
- tissue uptake at 4 h [2, 8]: < 1 %ID/g
- tissue uptake at 24 h [2, 8]: 0.4 ± 0.19 %ID/g
- tissue uptake at 4 h [2, 9]: < 0.2 %ID/g
- tissue uptake at 24 h [2, 9]: < 0.2 %ID/g
- tissue uptake at 4 h ([2]; CD1/nude (Crl:CD1-Foxn nu), whole blood, Blood): < 0.1 %ID/g
- tissue uptake at 4 h [2, 10]: 0.08 ± 0.01 %ID/g
- tissue uptake at 24 h [2, 10]: < 0.05 %ID/g
- tissue uptake at 4 h [2, 11]: 0.38 ± 0.03 %ID/g
- tissue uptake at 24 h [2, 11]: 0.84 ± 0.1 %ID/g
- tissue uptake at 4 h [2, 12]: < 0.05 %ID/g
- tissue uptake at 24 h [2, 12]: < 0.05 %ID/g
- tissue uptake at 4 h [2, 13]: 0.06 ± 0.01 %ID/g
- tissue uptake at 24 h [2, 13]: < 0.05 %ID/g
- tissue uptake at 4 h [2, 14]: 0.31 ± 0.03 %ID/g
- tissue uptake at 24 h [2, 14]: 0.18 ± 0.02 %ID/g
- tissue uptake at 4 h [2, 15]: 1.5 ± 0.1 %ID/g
- tissue uptake at 24 h [2, 15]: 1.3 ± 0.1 %ID/g
- tissue uptake at 4 h [2, 16]: 0.1 ± 0.01 %ID/g
- tissue uptake at 24 h [2, 16]: 0.17 ± 0.01 %ID/g
- tissue uptake at 4 h [2, 17]: 0.3 ± 0.02 %ID/g
- tissue uptake at 24 h [2, 17]: 0.21 ± 0.01 %ID/g
- tissue uptake at 4 h [2, 18]: < 0.05 %ID/g
- tissue uptake at 24 h [2, 18]: < 0.05 %ID/g
- tissue uptake at 4 h [2, 19]: 0.06 ± 0.01 %ID/g
- tissue uptake at 24 h [2, 19]: 0.06 ± 0.01 %ID/g
- tissue uptake at 4 h [2, 20]: 0.09 ± 0.01 %ID/g
- tissue uptake at 24 h [2, 20]: 0.09 ± 0.01 %ID/g
- tissue uptake at 4 h [2, 21]: 0.18 ± 0.02 %ID/g
- tissue uptake at 24 h [2, 21]: 0.23 ± 0.04 %ID/g
- tissue uptake at 4 h [2, 22]: 0.15 ± 0.03 %ID/g
- tissue uptake at 24 h [2, 22]: 0.17 ± 0.03 %ID/g
- Kd (human uPAR): 20 ± 1 nM
- Intact radiopeptide in human blood plasma [%] ([3]; 24 h, human blood plasma, 10 MBq/200 µL, 50 MBq/nmol, stabilized with L-ascorbic acid, 37 °C, reversed-phase TLC, phosphor imager, relative to t=0 (100%), average ± SD, n=3): ~4.5%
- remaining at 1 h, 10 MBq/200 µL ([3]; human, blood plasma): 71 ± 3%
- remaining at 24 h, 10 MBq/200 µL ([3]; human, blood plasma): 4.5 ± 1.2%
- remaining at 4 h, 10 MBq/200 µL ([3]; human, human blood plasma): ~13%
- radiolytic stability, % intact radiopeptide ([4]; 1 h): 98 ± 2%
- radiolytic stability, % intact radiopeptide ([4]; 4 h): 98 ± 1%
- Relative albumin-binding affinity, human blood plasma [5]: 0.01
- logD [6]: -1.38 ± 0.18
- Relative albumin-binding affinity, mouse blood plasma [7]: 0.02

Source: article PMC12135066, “Design and Preclinical Evaluation of Novel uPAR-Targeting Radiopeptides Modified with an Albumin-Binding Entity” (Molecular Pharmaceutics, 2025)
